Assay results taken from paper PMC4850393, “Sequence diversity of NanA manifests in distinct enzyme kinetics and inhibitor susceptibility” (Scientific Reports, 2016).

What was measured:
20566-CC (NanA-DSM20566) [1] = target: T1, 20566-CC (NanA-DSM20566) (Streptococcus pneumoniae, UniProt P62576, I442V); experiment: biochemical
20566-CC (NanA-DSM20566) [2] = target: T2, 20566-CC (NanA-DSM20566) (Streptococcus pneumoniae, UniProt P62576); experiment: chemiluminescence NA-Star assay; type: biochemical; conditions: read-out: 50% inhibitory concentration (μM) ^a / DANA
T2 construct: catalytic domain only, residues 311-833 (523 aa), N-terminal 6xHis (pET-28a), ~62 kDa, E. coli BL21(DE3); catalytic domain printed as identical to CF8919
Description: chemiluminescence NA-Star assay on 20566-CC (NanA-DSM20566)

20566-LC (NanA-DSM20566) = target: T3, 20566-LC (NanA-DSM20566) (Streptococcus pneumoniae, UniProt P62576); experiment: chemiluminescence NA-Star assay; type: biochemical; conditions: read-out: 50% inhibitory concentration (μM) ^a / DANA
T3 construct: lectin (CBM40) + catalytic domains, residues 116-833, N-terminal 6xHis (pET-28a), ~84 kDa, E. coli BL21(DE3), cobalt column
Description: chemiluminescence NA-Star assay on 20566-LC (NanA-DSM20566)

20566-CC (NanA-DSM20566) [3] = target: 20566-CC (NanA-DSM20566) (Streptococcus pneumoniae, UniProt P62576, G441A/I442V/K440R); experiment: biochemical
20566-CC (NanA-DSM20566) [4] = target: 20566-CC (NanA-DSM20566) (Streptococcus pneumoniae, UniProt P62576, K440R/G441A/I442V); conditions: read-out: 20566-CC-RAV; MES, 4 mM CaCl2, pH 6.5, room temperature
20566-CC (NanA-DSM20566) [5] = target: T1, 20566-CC (NanA-DSM20566); conditions: read-out: 20566-CC-KGV; MES, 4 mM CaCl2, pH 6.5, room temperature
20566-CC (NanA-DSM20566) [6] = target: 20566-CC (NanA-DSM20566) (Streptococcus pneumoniae, UniProt P62576, DEL440-442); conditions: read-out: 20566-CC-ΔKGI; MES, 4 mM CaCl2, pH 6.5, room temperature
[7] = tested on: CC(=O)N[C@H]1[C@H]([C@H](O)[C@H](O)CO)O[C@@](Oc2ccc3c(C)cc(=O)oc3c2)(C(=O)O)C[C@@H]1O; experiment: purified protein; conditions: pH 6.5
[8] = tested on: CC(=O)N[C@H]1[C@H]([C@H](O)[C@H](O)CO)O[C@@](Oc2ccc3c(C)cc(=O)oc3c2)(C(=O)O)C[C@@H]1O; experiment: purified protein; conditions: pH 6.5; remark: listed apart in the source

## CC(=O)N[C@H]1[C@H]([C@H](O)[C@H](O)CO)OC(C(=O)O)=C[C@@H]1O [DANA, 2,3-dehydro-2-deoxy-N-acetylneuraminic acid]
20566-CC (NanA-DSM20566) [1]
  IC50: 4.56 ± 0.71 µM
20566-CC (NanA-DSM20566) [2]
  IC50: 2.35 ± 0.16 µM
20566-LC (NanA-DSM20566)
  IC50: 3.8 ± 0.5 µM
20566-CC (NanA-DSM20566) [3]
  IC50: 0.92 ± 0.71 µM

## CC(=O)N[C@H]1[C@H]([C@H](O)[C@H](O)CO)O[C@@](Oc2ccc3c(C)cc(=O)oc3c2)(C(=O)O)C[C@@H]1O [MUNANA, 2′-(4-methylumbelliferyl)-a-D-N-acetylneuraminic acid]
20566-CC (NanA-DSM20566) [4]
  Km: 17.9 ± 1.07 µM
20566-CC (NanA-DSM20566) [5]
  Km: 32.8 ± 4.78 µM
20566-CC (NanA-DSM20566) [6]
  Km: > 1000 µM

## (Streptococcus pneumoniae R6)
[7]
  Km: 24.50 ± 2.71 µM
[8]
  Km: 25.97 ± 2.19 µM
